Where two headings read alike, the source gives them in different places. No end group written: not given here.
Columns and labels:
[1] = test system: K^+ depolarized arteries (iliac rings); assay: Contractile responses to CaCl2 in K^+ depolarized iliac rings from cynomolgus monkeys; design: species or system cynomolgus (Macaca fascicularis) monkeys; conditions: Mean ± SEM
Text: (§1) Twenty-four male cynomolgus (Macaca fascicularis) monkeys were divided into four groups of six animals each. During the course of the study, one of the control monkeys was sacrificed due to ill health unrelated to the study. Each group was fed a different diet for six months. The control group ate a normal diet of monkey biscuit. The cholesterol group ate a specially formulated monkey diet containing cholesterol. The cholesterol +low captopril group ate the cholesterol diet supplemented with captopril (50 mg/kg divided into two daily doses). The cholesterol+high captopril group ate the cholesterol diet and a higher total dose of captopril (100 mg/kg divided into two daily doses).
(§2) The monkeys were sedated with an intramuscular injection of ketamine (10 mg/kg), then anesthetized with pentobarbital (25 mg/kg). The iliac arteries were carefully dissected, cleaned of surrounding connective tissue, and refrigerated overnight for use the following day.
(§3) On the day of the experiment, three iliac rings (3 mm wide) from each animal were cut and mounted for isometric force recording. Each ring was attached to a micrometer for the control of muscle length and to a Grass FT.03 force transducer and Grass 7D recorder. The rings were placed in warm (37° C.), oxygenated, physiological salt solution (PSS) of the following composition (in mM): 140.0 NaCl, 4.7 KCl, 1.2 MgSO4, 1.6 CaCl2, 1.2 NaH2 PO4, 5.6 D-glucose, 2.0 2-(N-morpholino)propanesulfonic acid (MOPS, pH 7.4 at 37° C.), and 0.02 Na2 -ethylenediaminetetraacetic acid (EDTA). The rings were stretched to a preload of 5 g during a 2 hour equilibration period, then stimulated with 1 μM phenylephrine to test for viability and relaxed with 100 nM acetylcholine to test for endothelial function. Stock solutions of phenylphrine, acetylcholine, propranolol, and sodium nitroprusside were prepared daily in water; nifedipine stock solutions were prepared daily in ethanol.
(§4) The voltage-dependent calcium channels were studied in one ring from each monkey. The protocol consisted of depleting the cells of calcium by exposing the rings to a Ca-free, EGTA (ethylene glycol-bis(β-aminoethyl ether)N,N,N',N'-tetraacetic acid) PSS (omission of CaCl2 and addition of 0.1 mM EGTA) for 30 minutes. The EGTA was subsequently removed from the tissues with three washes of Ca-free PSS (simple omission of CaCl2). Following that, the rings were bathed in Ca-free, K^+ PSS (omission of CaCl2 and isoosmotic substitution of KCl for NaCl such that the KCl concentration was 110 mM) for 30 minutes. A CaCl2 concentration-response curve was obtained by replacing the bath solution with K^+ PSS containing incremental increases in CaCl2 concentration (0.1, 0.3, 0.5, 1.0, 1.25, 1.6, and 2.5 mM). The maximal contractions, in response to 2.5 mM CaCl2, were then relaxed incrementally with nifedipine. Another iliac ring (fade control) from each monkey was subjected to the same protocol with the exception that the strips were allowed to remain contracted and the nifedipine concentration-response curve was not obtained. Some fade of the CaCl2 -induced force was observed over the time period required for the nifedipine concentration-response curve. This fade was accounted for by decreasing the amount of relaxation observed upon addition of nifedipine by the amount of fade observed in the time control from the same monkey.
(§5) Data are presented as mean±SEM. The IC50 and EC50 values were estimated by linearly interpolating from the concentration-response curves. The EC50 values for each ring were used to determine the means for each treatment group.
Concentration-response curves to CaCl2 in K^+ depolarized rings were obtained following depletion of tissue calcium by repeated washing in Ca-free PSS first with, then without, EGTA. There were no differences in the responses to CaCl2 among any of the treatment groups (Table 1).

[2] = test system: vascular relaxation in response to EN-D (ACh) and EN-I (Na nitroprusside) agonists; conditions: rats, cited from earlier work; for vascular relaxations in response to EN-D (ACh) and EN-I (Na nitroprusside) agonists: oral
[3] = test system: isolated aorta from hypertensive rats; conditions: cited from earlier work
[4] = test system: delayed cerebral arteriospasm; conditions: cited from earlier work
[5] = test system: phenylephrine-contracted isolated iliac arteries; assay: Acetylcholine-induced relaxation of phenylephrine-contracted isolated iliac arteries from cynomolgus monkeys; design: species or system cynomolgus (Macaca fascicularis) monkeys; conditions: for EC50: Macaca fascicularis, non-responder excluded, Mean ± SEM; for maximum force generated in response to phenylephrine (before acetylcholine): non-responders excluded, mean±SEM
Text: as §1, §2, §3
(§6) Alpha-adrenoceptor and endothelial cell function were examined in the third ring from each monkey. In the presence of 0.1 μM propranolol, a cumulative concentration-response curve to phenylephrine was obtained, then the phenylephrine was washed out of the baths and the rings were allowed to relax completely. The rings were subsequently contracted with an EC50 concentration of phenylephrine (1 μM) and, following stabilization of the contraction, the rings were treated with increasing concentrations of acetylcholine, followed by 100 nM sodium nitroprusside.
as §5
For each monkey, the EC50 for acetylcholine relaxation was calculated by linearly interpolating from the concentration-response curves. When 50% relaxation was not achieved, the value of the EC50 was set to 30 μM a value larger than any of the experimental concentrations of acetylcholine).
Linear contrast of mean ranks in the groups were constructed with a variance estimate for the contrast based on the Kruskal-Wallis statistic (Dunn 1964).
In the analyses, the following coefficients were employed: i) for an overall test, the coefficients were 3 for the cholesterol group, 1 for the control group, -1 for the cholesterol+low captopril group, and -3 for the cholesterol+high captopril group, based on prior expectations of likely results; ii) for a test of the cholesterol effect, the coefficients were 1 for the cholesterol group, -1 for the control group, 0 for the cholestrol+low captopril group, and 0 for the cholesterol+high captopril group; iii) for a test of the captopril effect, the coefficients were 0 for the cholesterol group, 1 for the […], 0 for the cholesterol+low captopril group, and -1 for the cholesterol+high captopril group.
All statistical results reported are based on one-sided tests. […]

angina patients = conditions: 12 angina patients; Thuermann et al; cited from earlier work
[6] = test system: voltage-dependent calcium channels (iliac rings); assay: Relaxation responses to nifedipine of CaCl2-contracted iliac rings from cynomolgus monkeys; design: species or system cynomolgus (Macaca fascicularis) monkeys; conditions: Macaca fascicularis, contracted with 2.5 mM CaCl2 in K^+ PSS, mean±SEM
Text: as §1, §2, §3, §4
Data are presented as mean±SEM. The IC50 and EC50 values were estimated by linearly interpolating from the concentration-response curves. […]

[7] = test system: alpha-adrenoceptor (isolated iliac arteries); assay: Contractile responses to phenylephrine of isolated iliac arteries from cynomolgus monkeys; design: species or system cynomolgus (Macaca fascicularis) monkeys; conditions: Mean ± SEM; for EC50: Macaca fascicularis, read-out: EC50 (phenylephrine-induced contraction)
Text: as §1, §2, §3, §6, §5
Phenylephrine concentration-response curves were obtained in iliac rings from all groups of monkeys.

isolated rat hearts = conditions: interaction with ARG-I, ARG-II and BK; Schoelkens et al; cited from earlier work
[8] = test system: acute cerebral arteriospasm; conditions: after subarachnoid hemorrhage, dog, angiographic; cited from earlier work
[9] = test system: delayed cerebral vasospasm of the basilar artery and its branches; conditions: by injection; Gavras et al; cited from earlier work
rabbit veins = conditions: in vitro; cited from earlier work
rat stomach = conditions: in vitro; cited from earlier work
[10] = test system: rabbit or human platelets; conditions: in vitro; cited from earlier work
guinea pig or rat lungs = conditions: infusion through guinea pig or rat lungs; cited from earlier work
rat mesenteric veins = conditions: cited from earlier work

Question: For `[Ca+2].[Cl-].[Cl-]` [CaCl2], which EC50 ([1]; Cholesterol group) is on record?
Answer: 200000 ± 30000 nM

Question: What about the “Max Force (CaCl2)” value ([1]; Cholesterol group) of the same compound?
Answer: 18.2 ± 1.6 g

Question: And the EC50 ([1]; Control group)?
Answer: 140000 ± 10000 nM

Question: What about the “Max Force (CaCl2)” value ([1]; Control group) of the same compound?
Answer: 18.5 ± 1.1 g

Question: Which “effect on ACh-induced relaxation” value [2] does the source give for `COc1ccc2c(c1)c(CC(=O)O)c(C)n2C(=O)c1ccc(Cl)cc1` [Indomethacin] here?
Answer: did not prevent the effect of ACh

Question: And the “effect on relaxation responses” value ([3]; isolated aorta, hypertensive and normotensive rats)?
Answer: unaffected

Question: For `C[C@H](N[C@@H](CCc1ccccc1)C(=O)O)C(=O)N1CCC[C@H]1C(=O)O` [MK-422], which “restoring arterial width in delayed cerebral arteriospasm” value ([4]; four dogs, injectable form, unpublished data, preliminary) is on record?
Answer: at least as effective as teprotide

Question: For `CC(=O)OCC[N+](C)(C)C` [acetylcholine], which EC50 ([5]; Cholesterol group, N 5, EC50 set at 30 μM if <50% relaxation) is on record?
Answer: 16200 ± 7200 nM

Question: And the EC50 ([5]; Control group, N 4)?
Answer: 300 ± 100 nM

Question: What does the source list for `CCOC(=O)C(CCc1ccccc1)N[C@@H](C)C(=O)N1CCC[C@H]1C(=O)O` (stereo partly drawn) [enalapril, N-(1-ethoxycarbonyl-3-phenylpropyl)-L-alanyl-L-proline]?
Answer: anti-ischemic effect (angina patients): shown to have an anti-ischemic effect; vascular relaxations in response to EN-D (ACh) and EN-I (Na nitroprusside) agonists [2]: differentially affected vascular relaxations; normalization of relaxation responses and prevention of hypertension ([3]; P.o., salt-induced hypertension, rat): ineffective

Question: For `NNc1nncc2ccccc12` [hydralazine], which “vascular relaxations in response to EN-D (ACh) and EN-I (Na nitroprusside) agonists” value [2] is on record?
Answer: differentially affected vascular relaxations

Question: Which IC50 ([6]; cholesterol group) does the source give for `COC(=O)C1=C(C)NC(C)=C(C(=O)OC)C1c1ccccc1[N+](=O)[O-]` [nifedipine] here?
Answer: 22.8 ± 5.6 nM

Question: And the IC50 ([6]; cholesterol+high captopril group)?
Answer: 11.5 ± 1.8 nM

Question: And the IC50 ([6]; cholesterol+low captopril group)?
Answer: 18.8 ± 6.6 nM

Question: And the IC50 ([6]; control group)?
Answer: 11.4 ± 2.3 nM

Question: With `CNC[C@H](O)c1cccc(O)c1` [phenylephrine] as the compound, how does the “Max Force (phenylephrine-induced contraction)” value ([7]; Cholesterol group) read?
Answer: 17.3 ± 3.3 g

Question: What about the “Max Force (phenylephrine-induced contraction)” value ([7]; Control group) of the same compound?
Answer: 22.5 ± 1.6 g

Question: And the EC50 ([7]; Cholesterol group)?
Answer: 1200 ± 300 nM

Question: What about the EC50 ([7]; Control group) of the same compound?
Answer: 800 ± 100 nM

Question: What about the “maximum force generated in response to phenylephrine (before acetylcholine)” value ([5]; cholesterol group) of the same compound?
Answer: 11.0 ± 2.6 g

Question: And the “maximum force generated in response to phenylephrine (before acetylcholine)” value ([5]; control group)?
Answer: 14.3 ± 1.4 g

Question: For `Oc1cccc(O)c1O` [pyrogallol], which “effect on ACh-induced relaxation” value [2] is on record?
Answer: did inhibit ACh-induced relaxations

Question: Which local cardioprotective actions (isolated rat hearts) does the source give for `CCOC(=O)[C@H](CCc1ccccc1)N[C@@H](C)C(=O)N1[C@H](C(=O)O)C[C@@H]2CCC[C@@H]21` [ramipril] here?
Answer: BK is involved in the local cardioprotective actions of RP

Question: With `CC[C@H](C)[C@H](NC(=O)[C@H](CCC(N)=O)NC(=O)[C@@H]1CCCN1C(=O)[C@H](CCCNC(=N)N)NC(=O)[C@@H]1CCCN1C(=O)[C@H](Cc1c[nH]c2ccccc12)NC(=O)[C@@H]1CCC(=O)N1)C(=O)N1CCC[C@H]1C(=O)N1CCC[C@H]1C(=O)O` [teprotide] as the compound, how does the “effect on acute cerebral arteriospasm” value [8] read?
Answer: effective

Question: What about the “effect on delayed established cerebral arteriospasm” value ([4]; dog, in vivo) of the same compound?
Answer: could reverse that spasm as well

Question: And the “release of delayed cerebral vasospasm” value [9]?
Answer: partial or total release

Question: Which “contraction of rabbit veins” value (rabbit veins) does the source give for “endothelin: endothelin (EL) (CSCSSLMDKECVYFCHLDIIW; ends and bridges not checked; cysteine pairing not given here; UniProt P05305 53-73, looked up)” here?
Answer: contracted rabbit veins

Question: And the “contraction of rat stomach” value (rat stomach)?
Answer: contracted rabbit veins and rat stomach

Question: What about the platelet aggregation [10] of the same compound?
Answer: did not aggregate rabbit or human platelets or prevent their aggregation

Question: And the “release of PG12 and TXA2” value (guinea pig or rat lungs)?
Answer: release PG12 and TXA2

Question: What about the vasoconstriction (rat mesenteric veins; at higher doses) of the same compound?
Answer: vasoconstriction

Question: What about the “dilatation of rat mesenteric veins” value (rat mesenteric veins; via EDRF release) of the same compound?
Answer: dilated rat mesenteric veins
